{
  "source": "patent US20100190957A1",
  "about": "“SPECIFIC THERAPY AND MEDICAMENT USING INTEGRIN LIGANDS FOR TREATING CANCER” (priority 2007, published 2010)",
  "key": {"[1]": {"system": "human umbilical vein endothelial cells (HUVECs)", "test": "Serum growth stimulation (proliferation) assay, Alamar Blue, HUVEC", "type": "cell-based", "method": "(§1) The effect of integrin alpha V blocker EMD 121974 (Cilengitide) on the viability of human carcinoma cells were tested, in combination with vinorelbine and paclitaxel, respectively, in a cell viability assay, dependent on reduction of Alamar blue dye. Each agent alone could inhibiting carcinoma viability, used together the compounds show an advantagous and preferably synergistic inhibitory effect.\n(§2) The methods established and described in detail previously (Goodman and Hahn a; b) were used to measure the effect of combinations of integrin inhibitors and chemotherapeutics on carcinoma cell and human endothelial cell proliferation.\n(§3) Points were run in duplicate or in triplicate. Reagent blanks, containing media plus Alamar Blue without cells, were run on each plate. Blank values were subtracted from test values and were routinely 5-10% of uninhibited control values.\nIn the growth assay Cilengitide was tested in the range of 50 μM to 0.1 nM.\n(§4) Chemotherapeutic agents and αv-integrin blockers were serially diluted alone or together (combination therapy). In some assays the chemotherapeutic agent was serially diluted alone or in combination with of alpha-v integrin blocker. Growth inhibition curves were plotted and a shift of the combination therapy curve to lower concentrations in relation to the single agent curves was interpreted as an additional effect, produced by combination versus monotherapy.\n(§5) The αv-integrin competitive inhibitor Cilengitide (EMD 121974) was tested alone and in combination with vinorelbine in a serum growth stimulation assay using human carcinoma cells or human umbilical vein endothelial cells (HUVECs). In these assays cells are cultured in serum, or in an endothelial growth stimulation medium (Goodman & Hahn)."}, "[2]": {"system": "recurrent glioblastoma (GBM)", "settings": "human, in vivo", "description": "(§6) Methods: In this multicenter, open-label, randomized, uncontrolled study, pts with GBM and measurable disease that had relapsed after previous therapy with temozolomide and radiotherapy were randomized to receive cilengitide at doses of either 500 mg or 2000 mg i.v., 2×/week, until progression. Histopathology diagnosis and MRI imaging were subject to independent blinded review. The primary endpoint was Progression Free Survival (PFS) at 6 months (mths). Secondary endpoints included response, survival, time to disease progression, safety, tolerability and pharmacokinetics."}, "various brain tumors": {"system": "various brain tumors", "settings": "humans; cited from earlier work"}, "[3]": {"system": "newly diagnosed glioblastoma (GBM)", "test": "Phase I/IIa trial of cilengitide and temozolomide with concomitant radiotherapy in newly diagnosed glioblastoma", "type": "in vivo, human", "method": "Patients and methods: Fifty-two pts (PS 0-1: 92%, 2: 8%; median age 57 yrs) after biopsy (n=9/17%) or tumor resection (n=43/83%) were treated with standard TMZ/RT (Stupp et al. NEJM 2005). In addition Cilengitide (500 mg i.v., 2×/week) was started one week before TMZ/RT and given throughout for the duration of chemotherapy or until progression. Primary endpoint was progression free survival rate at 6 months (target: 65%). Patients were followed with MRI every 2 months. Histopathologic diagnosis and MRI imaging were independently reviewed, MGMT promotor methylation status was assessed in 45 (86.5%) pts."}, "[4]": {"system": "U251 human glioblastoma cells", "test": "Rat orthotopic glioblastoma model, radiotherapy / cilengitide scheduling experiments (survival)", "type": "in vivo, NIH rnu nude rats", "parameters": "key to Status at Date of Termination: Sick = moribund and removed from study; Healthy = indicates sampled for tissue at date shown, but alive at this point; Alive = surviving at time point shown", "settings": "for Days Post Implant / Status at Date of Termination: per animal, listed as Rt + EMD; for Days Post Implant: at date of termination, plus 7 subsequent daily boluses, 4 mg/kg", "method": "NIH rnu nude rats are anaesthetized, restrained, and injected intracerebrally 1 mm retro orbitally, 3mm to the right of the bregma and at a depth of 2.5 mm with 5×10E5 U251 human glioblastoma cells suspended in 10 ul of culture medium, using a #2701 Hamilton syringe fitted with a 26 gauge needle, essentially as previously described (Engebraaten et al., 1999). After 14 days, cilengitide (4 mg/kg) is given as an intraperitoneal bolus in PBS, at various time (8 h, 4 h, 2 h, 1 h) prior to a single treatment with single, collimated, dorsal-ventral beam of 6 MV x-rays, so that 95-100% of the central axis dose of 25 Gy hit the tumor volume (Kim et al., 1999). Each of the 7 subsequent days the animals also received an identical i.p. bolus of cilengitide. The animals are maintained under ad libitum food and drink until they become moribund, or are sampled for tissue analysis (in the t-4 and t-8 h groups, where the animals are healthy past 230 days post tumor injection). A Kaplan-Meier survival curve is calculated and plotted (FIG. 1) from the raw data (Table 1). All animals in the RT monotherapy group died by 120 d."}, "[5]": {"system": "recurrent glioblastoma (GBM)", "test": "Phase IIa trial of cilengitide single agent therapy in patients with recurrent glioblastoma", "description": "as §6"}, "renal carcinoma (A498)": {"system": "renal carcinoma (A498)", "test": "Proliferation / cell viability assay, Alamar Blue, A498", "type": "cell-based, human", "settings": "for EC50: Homo sapiens, A498, agent alone or + Cilengitide (2 μM constant)", "method": "as §1, §2, §3, §4, §5\nCilengitide concentration is 2μM (constant)."}, "NSCLC A549": {"system": "NSCLC A549", "test": "Proliferation / cell viability assay, Alamar Blue, A549", "type": "cell-based, human", "settings": "for EC50: Homo sapiens, A549, agent alone or + Cilengitide", "method": "as §1, §2, §3, §4, §5"}, "SCCHN (Detroit562)": {"system": "SCCHN (Detroit562)", "test": "Proliferation assay, Detroit 562", "type": "cell-based, human", "settings": "Cilengitide 2 μM (constant)"}, "[6]": {"settings": "Homo sapiens, HUVEC, agent alone"}, "[7]": {"settings": "Homo sapiens, HUVEC, in combination with 2 μM Cilengitide"}},
  "note": "Values joined by “and” are separate entries in the source; they are usually repeats but may differ in a detail not shown here. Equal entries are not always repeated. “Also recorded” adds a separate entry of the source.",
  "data": [
    {"smiles": "CC(C)[C@H]1C(=O)N[C@@H](CCCN=C(N)N)C(=O)NCC(=O)N[C@@H](CC(=O)O)C(=O)N[C@H](Cc2ccccc2)C(=O)N1C", "note": "[Cilengitide, cyclo-(Arg-Gly-Asp-DPhe-NMeVal)]", "values": [
      {"measurement": "IC50", "setting": "[1]; agent alone", "value": 700, "unit": "nM"},
      {"measurement": "CTC grade 2 cerebral hemorrhage", "setting": "[2]", "value": "One"},
      {"measurement": "MTD / side effect profile", "setting": "various brain tumors", "value": "no known MTD in humans"},
      {"measurement": "haematological grade 3 and 4 toxicity: neutropenia", "setting": "[3]; Cilengitide 500 mg + TMZ/RT, 5/52", "value": 9.6, "unit": "%"},
      {"measurement": "haematological grade 3 and 4 toxicity: thrombocytopenia", "setting": "[3]; Cilengitide 500 mg + TMZ/RT, 7/52", "value": 13.4, "unit": "%"},
      {"measurement": "haematological grade 3 and 4 toxicity: lymphopenia", "setting": "[3]; Cilengitide 500 mg + TMZ/RT, 28/52", "value": 53.8, "unit": "%"},
      {"measurement": "Treatment related non-hematologic grade 3 toxicities, patients", "setting": "[3]; Cilengitide 500 mg + TMZ/RT, n=3/52", "value": 5.7, "unit": "%"},
      {"measurement": "tolerability of the combination with TMZ/RT", "setting": "[3]; Cilengitide 500 mg i.v. 2x/week + TMZ/RT", "value": "well tolerated"},
      {"measurement": "patients progression free at 6 months (PFS-6)", "setting": "[3]; Cilengitide 500 mg i.v. 2x/week added to standard TMZ/RT, 34/52, 95% CI 50.9-78.0%", "value": 65.4, "unit": "%"},
      {"measurement": "sigmoid perforation (grade 2)", "setting": "[3]; patient with a history of sigmoid diverticulosis", "value": "One"},
      {"measurement": "PFS-6 rate", "setting": "[3]; subgroup with methylated MGMT promoter (23/52), Cilengitide 500 mg + TMZ/RT, historical control 69%", "value": 91, "unit": "%"},
      {"measurement": "PFS-6 rate", "setting": "[3]; subgroup with unmethylated MGMT promotor (22/52), Cilengitide 500 mg + TMZ/RT, historical control 40%", "value": 40.9, "unit": "%"},
      {"measurement": "Days Post Implant", "setting": "[4]; cilengitide bolus 4 mg/kg i.p. 1 hour pre-irradiation (Rt 25 Gy)", "value": "112 days and 113 days and 130 days and 141 days"},
      {"measurement": "Days Post Implant", "setting": "[4]; cilengitide bolus 4 mg/kg i.p. 2 hours pre-irradiation (Rt 25 Gy)", "value": "120 days and 147 days and 162 days and 196 days"},
      {"measurement": "Days Post Implant", "setting": "[4]; cilengitide bolus 4 mg/kg i.p. 4 hours pre-irradiation (Rt 25 Gy)", "value": "238 Days (2×) and 254 Days (2×)"},
      {"measurement": "Days Post Implant", "setting": "[4]; cilengitide bolus 4 mg/kg i.p. 8 hours pre-irradiation (Rt 25 Gy)", "value": "287 Days (2×) and 257 Days (2×)"},
      {"measurement": "Status at Date of Termination", "setting": "[4]; cilengitide 4 mg/kg 1 hour pre-irradiation (Rt 25 Gy)", "value": "(Sick) Sep. 1, 2005; also recorded: (Sick) Sep. 2, 2005; also recorded: (Sick) Sep. 19, 2005; also recorded: (Sick) Sep. 30, 2005"},
      {"measurement": "Status at Date of Termination", "setting": "[4]; cilengitide 4 mg/kg 2 hours pre-irradiation (Rt 25 Gy)", "value": "(Sick) Aug. 10, 2005; also recorded: (Sick) Sep. 6, 2005; also recorded: (Sick) Sep. 21, 2005; also recorded: (Sick) Oct. 25, 2005"},
      {"measurement": "Status at Date of Termination", "setting": "[4]; cilengitide 4 mg/kg 4 hours pre-irradiation (Rt 25 Gy)", "value": "(Healthy) Nov. 29, 2005; also recorded: (Alive) Dec. 15, 2005"},
      {"measurement": "Status at Date of Termination", "setting": "[4]; cilengitide 4 mg/kg 8 hours pre-irradiation (Rt 25 Gy)", "value": "(Alive) Dec. 15, 2005; also recorded: (Healthy) Nov. 15, 2005"},
      {"measurement": "animals healthy past days post tumor injection", "setting": "[4]; t-4 and t-8 h groups, cilengitide 4 mg/kg i.p. + 25 Gy", "value": "> 230", "unit": "days"},
      {"measurement": "12 mth overall survival (OS) rate", "setting": "[5]; 500 mg arm", "value": 24.4, "unit": "%"},
      {"measurement": "median Overall Survival (mOS)", "setting": "[5]; 500 mg arm, 95% CI 5.2-9.3 mths", "value": 6.5, "unit": "mths"},
      {"measurement": "PFS rate at 6 mths", "setting": "[5]; 500 mg or 2000 mg i.v. 2x/week, both arms, n=13/81 pts", "value": 16.1, "unit": "%"},
      {"measurement": "12 mth OS rate", "setting": "[5]; 2000 mg arm", "value": 37.5, "unit": "%"},
      {"measurement": "median Overall Survival (mOS)", "setting": "[5]; 2000 mg arm, 95% CI 6.3-15.7 mths", "value": 9.9, "unit": "mths"},
      {"measurement": "grade 4 therapy related AEs", "setting": "[5]; 500 and 2000 mg", "value": "No grade 4 therapy related AEs were reported"},
      {"measurement": "Treatment related NCI CTC grade 3 adverse event: arthralgia/myalgia", "setting": "[5]; at 500 mg", "value": 1, "unit": "patient"},
      {"measurement": "Treatment related NCI CTC grade 3 adverse event: elevated liver enzymes", "setting": "[5]; at 500 mg", "value": 1, "unit": "patient"},
      {"measurement": "Treatment related NCI CTC grade 3 adverse event: weight increase/edema", "setting": "[5]; at 2000 mg", "value": 1, "unit": "patient"},
      {"measurement": "pts still progression-free and on treatment at the time the abstract was issued", "setting": "[5]; both arms, six of 81 pts", "value": 7.4, "unit": "%"},
      {"measurement": "tolerability in single agent therapy", "setting": "[5]; two dose levels (500 and 2000 mg)", "value": "tolerated well"}
    ]},
    {"smiles": "CC(=O)O[C@H]1C(=O)[C@@]2(C)[C@H]([C@H](OC(=O)c3ccccc3)[C@]3(O)C[C@H](OC(=O)[C@H](O)[C@@H](NC(=O)c4ccccc4)c4ccccc4)C(C)=C1C3(C)C)[C@]1(OC(C)=O)CO[C@@H]1C[C@@H]2O", "note": "[Paclitaxel]", "values": [
      {"measurement": "IC50", "setting": "[1]; [6]", "value": 10, "unit": "nM"},
      {"measurement": "IC50", "setting": "[1]; [7]", "value": 0.05, "unit": "nM"},
      {"measurement": "EC50", "setting": "renal carcinoma (A498)", "value": 100, "unit": "nM"},
      {"measurement": "EC50", "setting": "NSCLC A549", "value": 8, "unit": "nM"}
    ]},
    {"smiles": "CCC1=C[C@@H]2CN(C1)Cc1c([nH]c3ccccc13)[C@@](C(=O)OC)(c1cc3c(cc1OC)N(C)[C@H]1[C@@](O)(C(=O)OC)[C@H](OC(C)=O)[C@]4(CC)C=CCN5CC[C@]31[C@@H]54)C2", "note": "[Vinorelbine]", "values": [
      {"measurement": "IC50", "setting": "[1]; [6]", "value": 20, "unit": "nM"},
      {"measurement": "IC50", "setting": "[1]; [7]", "value": 0.8, "unit": "nM"},
      {"measurement": "effect of combination with Cilengitide on A498 cell proliferation", "setting": "renal carcinoma (A498); Cilengitide constant at 2 μM", "value": "synergistically enhanced"},
      {"measurement": "EC50", "setting": "renal carcinoma (A498)", "value": 60, "unit": "nM"},
      {"measurement": "effect of combination with Cilengitide on growth of A549", "setting": "NSCLC A549", "value": "synergistically enhanced"},
      {"measurement": "EC50", "setting": "NSCLC A549", "value": 8, "unit": "nM"},
      {"measurement": "effect of combination with Cilengitide on SCCHN (Detroit562) cell proliferation", "setting": "SCCHN (Detroit562)", "value": "synergistically enhanced"}
    ]}
  ]
}
